PMC7350133 (Heliyon, 2020)
Like-named read-outs stand apart in the source and are kept apart here. Each block holds one compound with its values, some of them ahead of it.

Legend:
[1] = tested on: yeast alpha glucosidase enzyme; settings: ref Gong et al., 2017, Peng et al., 2016, Rouzbehan et al.; cited from earlier work
[2] = DPPH free radical scavenging assay; settings: mean ± SD (n = 3)
[3] = ABTS free radical scavenging assay; settings: mean ± SD (n = 3)
alpha glucosidase = settings: cited from earlier work

Compound: O=c1c(O)c(-c2ccc(O)cc2)oc2cc(O)cc(O)c12 [kaempferol]
type of inhibition [1]: mixed type

Antioxidant activity (IC50 in μg/mL) DPPH Assay [2]: 5.1 ± 0.1 µg/mL
Antioxidant activity (IC50 in μg/mL) ABTS Assay [3]: 3.9 ± 0.2 µg/mL
Compound: O=C1O[C@H]([C@@H](O)CO)C(O)=C1O [Ascorbic acid]

Compound: COc1ccc([C@@H]2CC(=O)c3c(O)cc(O)cc3O2)cc1O [hesperetin]
type of inhibition [1]: mixed type

Compound: O=c1c2cc(O)c(O)cc2oc2cc(O)cc(O)c12 [norathyriol]
AGI IC50 (alpha glucosidase; ref Gu et al., 2019): 4.22 ± 0.19 µg/mL

Compound: C/C=C(\C)CC/C=C(\C)C(=O)OCC(C)(C)CC1=C(O)C(=O)c2ccccc2C1=O [rhinacanthin C]
AGI IC50 (alpha glucosidase; ref Shah et al., 2017): 22.6 ± 0.6 µg/mL

Compound: C[C@H]1O[C@H](O[C@H]2[C@H](O)[C@@H](O)[C@@H](O[C@H]3[C@H](O)[C@@H](O)C(O)O[C@@H]3CO)O[C@@H]2CO)[C@H](O)[C@@H](O)[C@@H]1N[C@H]1C=C(CO)[C@@H](O)[C@H](O)[C@H]1O (stereo partly shown) [Acarbose, acarbose]
type of inhibition [1]: competitive
